Starred links: 1 amine or outer side, 2 acyl side, 3 side chain; linkers in the order of their positions; H or OH if unused. Positions of bridges follow the written chain, without caps; N, C: chain ends. Non-standard residues stand in square brackets, D forms with d. Residues, ends and D or L forms follow the SMILES beside them. Chains are numbered I, II in the order given. *: point of attachment. isoGln = NC(=O)[C@H](CCC(=O)[*:2])N[*:1]; εLys = N[C@@H](CCCCN[*:1])C(=O)[*:2]; Dab = NCC[C@H](N)C(=O)O; PhAc = O=C(Cc1ccccc1)*
Assays:
[1] = Metabolite pattern (M1, M5) in human plasma after i.v. infusion and s.c. injection; assay type: in vivo
Protocol: (§1) Urinalysis was performed locally by means of a dip-stick test. […] In case any result of the dipstick was abnormal and clinically significant, a new urine test was to be performed. If the abnormal result was confirmed, further examination could be initiated at the discretion of the Investigator. Clinically significant abnormal findings were reported as AEs. The metabolite pattern of Compound 1 in plasma and urine were measured.
In some instances, an objective of the study was to investigate metabolite pattern of Compound 1 in plasma and urine.
Due to analytical method interference, it was not possible to analyses for metabolites in human urine. After i.v. administration, the metabolite M1 was present only at low concentrations in one subject in the male and 4 subjects in the female dose group 0.6 mg, while it was present in all females and 5 of the 6 males in the 0.9 mg dose group, albeit with few exceptions below LOQ (FIG. 44, panel A).

[2] = Safety and tolerability / adverse events in healthy subjects; assay type: in vivo, human
From the text: The terms “adverse event” or “AE” as used herein, refer to an untoward medical occurrence in an individual, such as an individual participating in a clinical trial. In some instances, an AE is an unfavorable and/or unintended sign, symptom, or disease, such as being temporally associated with the use of an investigative medicinal product (IMP), whether or not considered to be caused by the IMP. For example, an AE can include accidental injuries, reasons for any change in medication (drug and/or dose), reasons for any medical, nursing or pharmacy consultation, or reasons for admission to hospital or surgical procedures, and overdoses and medication errors with or without clinical consequences. In some instances, AEs are anticipated based on the pharmacological effect of the IMP. In some instances, an AE is a laboratory abnormality, vital sign or finding from physical or gynecological examination assessed as clinically significant by the investigator. In some instances, a pre-treatment adverse event is any untoward medical occurrence arising or observed between signing of informed consent and the first administration of the IMP. In some instances, a treatment emergent adverse event is an AE occurring after the administration of the IMP and within the time of residual drug effect, or a pre-treatment adverse event or pre-existing medical condition that worsens in intensity after administration of the IMP and within the time of residual drug effect.
Injection site reactions were assessed by the Investigator in treatment Period 2 only, immediately after, 0.5, 4, and 24 hours after subcutaneous administration of the study drug on Days 1 to 5. The injection site reactions to be assessed were erythema, pain, pruritus, oedema, bruising, and pallor, each to be assessed as none, mild, moderate, or severe. Injection site reactions other than those described above or persisting longer than 24 hours were classified as adverse events (AEs).
Blood samples for hematology and hemostasis parameters were collected on Day −1, and at 2, and 4 hours after the administration on Day 1, pre-dose, and 3 hours after the administration on Days 2-4, pre-dose, and at 2, and 6 hours after the administration on Day 5 and at follow-up. The actual sampling times were recorded.
as §1

rV1a receptor = target: T1, rV1a receptor (Rattus norvegicus, UniProt P30560); experiment: FLIPR calcium assay, rat V1a (A7r5 cells); assay type: cell-based; settings: A7R5, read-out: % MPE
T1 construct: endogenously expressing rV1a; host or cells: A7r5 rat thoracic aorta smooth muscle cells
Protocol: Cell Lines. Studies were conducted with cell lines expressing rat (r) or human (h) Via, V1b, V2, or OT receptors. For the experiments with human receptors, human embryonic kidney (HEK)-flp-in cells stably expressing the lacZ-Zeocin™ fusion gene were used for expression of hV1a and hV1b. These cells were designed for use with the Flp-In™ expression vector containing the gene of interest (here hV1a or hV1b) and the Flp recombinase expression plasmid, pOG44. For hV2 and hOTR, HEK-293 cells transiently expressing hV2 were used.
Functional Cell-Based Assays.

[3] = M1 formation after IV and SC (bolus) injection in healthy rats; settings: in vivo, s.c. (bolus) injection, rat
From the text: A similar study in healthy rats was used to evaluate the differences between metabolite formation of Compound 1 after IV bolus and SC (bolus) injection.

skin blood flow (SBF) = experiment: Skin blood flow (SBF), laser Doppler, anesthetized Wistar rats, IV infusion; assay type: in vivo, rat
Protocol: This study was performed over multiple experiments using a total of 48 adult male Wistar rats. […] Compounds were infused via an IV catheter at six sequentially increasing doses.
On the day of experimentation animals were anesthetized and instrumented. A tracheostomy was performed to allow assisted respiration and three catheters were placed. Laser Doppler probes were positioned on a shaved portion of the animal's lower abdominal skin for blood-flow measurements. Ventilation was initiated, and baseline readings for the primary parameter of skin blood flow (SBF) were recorded. Readings for the secondary parameters were also recorded: (1) blood lactate concentration, (2) mean arterial pressure (MAP), and (3) blood pH. Data collection was performed continuously for SBF and MAP using NOTOCORD-hem™ (Instem), and blood samples were taken at each compound dose and immediately analyzed using an i-STAT® meter.
After the final dose administration, animals were euthanized and a final SBF measurement was recorded to detect any signal from the flow probe after the animal's heart stopped beating to control for a signal not attributed to blood flow. Animal body temperature, pulse, and ventilation adequacy were monitored throughout the procedure.

[4] = Preceding clinical study, Cmax; assay type: in vivo, human; settings: 0.3 mg
Protocol: The originally planned escalating doses were 0.1, 0.3, 1, 3, 6, and 10 mg, respectively. […] The doses and/or infusion rates could be adjusted based on recommendations from the SRC.

[5] = i.v., Period 1, active treatment
[6] = s.c., Period 2, active treatment

T1 sequence (P30560 whole entry): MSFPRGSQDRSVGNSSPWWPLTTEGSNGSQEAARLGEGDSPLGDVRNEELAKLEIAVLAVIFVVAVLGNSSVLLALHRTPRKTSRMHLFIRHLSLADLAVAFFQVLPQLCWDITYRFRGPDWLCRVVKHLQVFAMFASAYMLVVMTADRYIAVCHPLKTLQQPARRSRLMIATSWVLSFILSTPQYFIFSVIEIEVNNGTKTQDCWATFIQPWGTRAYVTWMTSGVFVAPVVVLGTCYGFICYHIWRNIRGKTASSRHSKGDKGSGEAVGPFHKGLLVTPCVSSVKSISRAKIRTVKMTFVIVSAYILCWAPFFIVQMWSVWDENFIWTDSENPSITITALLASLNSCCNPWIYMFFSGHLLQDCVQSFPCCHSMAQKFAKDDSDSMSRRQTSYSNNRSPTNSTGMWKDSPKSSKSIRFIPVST

With `CC[C@H](C)[C@@H]1NC(=O)[C@H](Cc2ccccc2)NC(=O)[C@@H](N)CSSC[C@@H](C(=O)N2CCC[C@H]2C(=O)N[C@@H](CCNC(=O)[C@@H](N)CCCCNC(=O)[C@H](CCCCNC(C)=O)NC(=O)CC[C@H](NC(=O)[C@H](CCCNC(=N)N)NC(=O)[C@@H]2CCCN2C(=O)[C@H](C)NC(=O)[C@H](CC(N)=O)NC(=O)[C@H](CCC(N)=O)NC(=O)[C@H](Cc2ccccc2)NC(=O)[C@@H](Cc2ccc(OC)cc2)NC(=O)Cc2ccccc2)C(N)=O)C(=O)NCC(N)=O)NC(=O)[C@H](CC(N)=O)NC(=O)[C@H](CCC(N)=O)NC1=O` [Compound 1, Glycinamide, L-cysteinyl-L-phenylalanyl-L-isoleucyl-L-glutaminyl-L-asparaginyl-L-cysteinyl-L-prolyl-N4-(phenylacetyl-O-methyl-D-tyrosyl-L-phenylalanyl-L-glutaminyl-L-asparaginyl-L-alanyl-L-prolyl-L-arginyl-L-isoglutamyl-N5-acetyl-L-lysyl-L-ε-lysyl)-L-2,4-diaminobutyryl-, cyclic (1→6)-disulfide] (I: H-CFIQNCP[Dab]G-NH2 / II: PhAc-[dY](Me)FQNAPR[isoGln]K(Ac)[εLys]; disulfide I:1-I:6; amide I:8-II:C) the half-life ([1]; i.v.) was about 4 h, the half-life ([1]; s.c.) was “about 2 hours” and the “conversion of Compound 1 to M1” value ([1]; s.c. (bolus) injection, human) was 80-90%. The “severe AEs” value ([2]; i.v. 0.1 mg (bradycardia)) was “One”, the “TEAEs regarded as ADRs” value ([2]; i.v., 34 subjects on active treatment) was 87 and the “serious AEs” value ([2]; i.v., Period 1) was “No serious AEs occurred”. The “number of TEAEs” value [2, 5] was 94, the “subjects with TEAEs” value [2, 5] was 35 of the 48 and the “maximum tolerated s.c. dose (MTD)” value ([2]; s.c.) was “about 0.1 mg”. For the same molecule, the “severe AEs” value ([2]; s.c. 0.1 mg (abdominal pain)) was 3, the “subjects with moderate oedema and mild pain at injection site” value ([2]; s.c. 0.1 mg, 30 min) was 1 subject and the “severe AEs” value ([2]; s.c. 0.3 mg (abdominal pain, back pain), 1 subject) was 2. The “serious AEs leading to discontinuation” value ([2]; s.c. 0.3 mg (elevated troponin I)) was 1, the injection site reactions ([2]; s.c. (bolus) injection) was “Erythema, pallor, and pruritus of mild severity” and the “TEAEs regarded as ADRs” value ([2]; s.c., 9 subjects on active treatment) was 87. The “AE leading to death” value ([2]; s.c., Period 2) was “No AE led to death”, the “number of TEAEs” value [2, 6] was 87 and the “subjects with TEAEs” value [2, 6] was 9 subjects. For the same molecule, the tolerability ([2]; single i.v. infusion, about 0.9 mg or less) was “safe and well tolerated”, the Emax (rV1a receptor) was 30% and the metabolised [3] was 80 to 90%. The “SBF ED50” value (skin blood flow (SBF)) was 25.2 pmol/kg/min, the “SBF Emax” value (skin blood flow (SBF)) was 38.6% and the “greatest percent change from baseline in skin flow” value (skin blood flow (SBF)) was −42.1%. The Cmax ([4]; 6 hour i.v. infusion) was “up to 6 ng/mL” and the Cmax ([4]; s.c. injection) was “up to 2.5 ng/mL”.

— patent US20260315609A1, “MIXED VASOPRESSIN RECEPTOR AGONIST-ANTAGONIST FOR TREATING END-STAGE LIVER DISEASE AND COMPLICATIONS ASSOCIATED THEREOF” (FERRING B.V., priority 2022, published 2026)
